In patent US20080226565A1, “Anticariogenic Proteins & Peptides & Saccharides” (priority 2004, published 2008):

Legend:
[1] = In-vivo: radiated tooth samples treated with protector, 5 days in the oral cavity, Knoop hardness; design: species or system human; conditions: for delta: change of hardness (increase of depth of penetration): radiation + 5 days in oral cavity, 0.1% fluoride or 4% bisphosphonate e-polylysine with CaCl2 and KH2PO4
Text: A device is constructed that can contain up to 6 experimental tooth samples for positioning in the oral cavity. […] The construction of the experimental tooths samples is outlined in chapter C.2.“Results; in-vivo experiments”. In the oral cavity, the tooth samples are positioned in the device in such a way that the enamel surfaces are subjected to physical contact with the tongue and are submerged in saliva. […] In experiments where the device is residing a long time period in the oral cavity (5 days and more), a metal network is positioned just above the surface of the experimental teeth, in order to provide support for the bacteria and stimulate it's growth path. It is also possible to measure the residual protection competence by removing the tooth samples from the oral cavity at the end of the selected residence time and treating them with acid under laboratory conditions.
The device was positioned after the lower jaw in the oral cavity for a period of five days. After removal from the oral cavity, the samples where cleaned and the hardness was measured.
Tooth samples have been cut in horizontal slices (thickness: 0.3 to 1 mm) with a Leitz 1600 tooth cutter with horizontal cutting blade; the slices are cut manually (with a bore) into small tooth samples that contain a small part of the original tooth surface. The tooth sample is positioned in a small plastic tube, that has been cut from a long plastic tube with 6 mm external diameter. The length of the tube is 3 to 6 mm. The inner part of the tube is filled with a polymer that hardens under light (Photoclearfil Bright; Kuraray). The tooth sample is positioned in the soft polymer inside the tube, in such a way that the original tooth surface is just surfacing above the tube. Finally the polymer is hardened with a light source. The tooth surface is polished with Struers silicon carbid paper (800-4000) and the hardness is measured 5 times on each of the samples under the Letiz Wetzlar microscope (weight on needle: 50 p). Tooth samples with a maximum average depth of penetration of 43 μm are retained for use in the oral cavity.
Tooth samples have been subjected to a radiation dose that is equal to the amount that is given to patients with oral cancer (20 Gray) and have been sterilized. […] A drop of the solution was positioned on the tooth surface and allowed to reside for a period of 30 minutes at 37 C.; the procedure was repeated after removal of the drop with pressured air. Finally the drop was removed, the tooth was dried on air and fixed to the device. In total six tooth samples have been fixed to the device and positioned in the oral cavity after the lower jaw. It remained in the oral cavity for a period of 5 days (day and night). After completion of the required residence time, the device was removed from the oral cavity and the experimental teeth where separated from the device and washed. The hardness was measured according to the Knoop method, six times on each of the tooth samples.
B: the stage at which the hardness of the tooth surface has been measured with the Knoop method. (before the treatment; after radiation and before addition of protector formulation to the surface; after addition of protector to the surface of the tooth and after residing five days in the oral cavity).
B: the stage at which the hardness of the tooth surface has been measured with the Knoop method.

Streptococcus spp. = assay: Susceptibility (MIC), agar dilution, Streptococcus spp.; format: cell-based; conditions: 6 from 9 Streptococcus strains
Description: The investigations included more than hundred strains isolated from the oral cavity: : anaerobes, microaerophilic bacteria, aerobes, Streptococcus spp. and yeast like fungi. The microorganisms were isolated from saliva, mucosal membrane, gingival pockets and caries decay. The susceptibility (MIC) of bacteria and yeastlike fungi were determined by means of plate dilution technique in agar.
The investigated samples were dissolved in sterile distilled water (immediately before the experiment) to obtain the following concentrations: 3.5, 1.7, 0.8, 0.4 and 0.2 mg/ml and were added into appropriate agar. The plates were inoculated using a Steers multipoint inoculator. Inoculum contained 10^6 CFU/spot. […]
Anaerobes. The susceptibility of bacteria was determined by means of the agar dilution methods with Brucella agar supplemented with 5% defibrinated sheep's blood, menadione and hemin. […] The susceptibility of bacteria was determined by means of the agar dilution methods with Brucella agar supplemented with 5% sheep's blood. […] The susceptibility of bacteria was determined by means of the agar dilution methods with Mueller-Hinton agar supplemented with 5% sheep's blood. […] The susceptibility to investigated samples was determined by means of the plate dilution technique in Mueller-Hinton agar. […]

[2] = In-vivo: residual protection, radiated samples after 5 days in oral cavity treated with acetic acid; design: species or system human
Text: N: number of tooth samples A: hardness(μm) after radiation and 5 days residence in the oral cavity B: hardness after radiation and 5 days in the oral cavity and treatment with acetic acid

With “bisphosphonylated epsilon-polylysine [bisphosphonylated e-polylysine]” the “Mean hardness (depth of penetration)” value ([1]; after protector and 5 days oral cavity, 0.1% NaF or 4% bisphosphonate e-polylysine with CaCl2 and KH2PO4) was 41.97 μm, the “Mean hardness (depth of penetration)” value ([1]; after radiation, before addition of protector (baseline of group)) was 41.02 μm and the “delta: change of hardness” value ([1]; after radiation, before addition of the formulation) was 0.15 μm. For the same substance, the “delta: change of hardness (increase of depth of penetration)” value ([1]; listed as bisphosphonate e-polylysine) was 1.10 μm, the “delta: change of hardness (increase of depth of penetration)” value ([1]; listed as bisphosphonylated epsilon-polylysine) was 1.1 μm and the “Mean hardness (depth of penetration)” value ([1]; start, before treatment (baseline of group)) was 40.87 μm. The “concentration inhibiting growth (MIC)” value (Streptococcus spp.) was 1700 µg/mL, the “C: B−A (increase of depth of penetration by acid)” value ([2]; acetic acid 0.1N, 30 min, 37° C. after 5 days in oral cavity) was 3.9 μm and the “B: hardness after radiation and 5 days in the oral cavity and treatment with acetic acid” value ([2]; acetic acid 0.1N, pH 5, 30 min, 37° C.) was 44.5 μm. For the same substance, the “A: hardness after radiation and 5 days residence in the oral cavity” value ([2]; samples later treated with acid) was 40.6 μm.
